{
  "source": "patent US20100099762A1",
  "about": "“COMBINATION THERAPY” (THE MENTAL HEALTH RESEARCH INSTITUTE OF VICTORIA, priority 2006, published 2010)",
  "key": {"[1]": {"details": "in vivo; cited from earlier work"}, "schizophrenia": {"test_system": "schizophrenia", "assay": "Randomised double blind multicentre placebo controlled trial of NAC in combination with an antipsychotic agent in schizophrenia", "type": "in vivo, human", "description": "There is preclinical evidence of a reduction in antioxidant defences in schizophrenia, particularly a reduction in glutathione, which is a primary endogenous antioxidant defence. N-acetyl cysteine (NAC) is a bioavailable precursor of glutathione. This Example is a randomised double blind multicentre placebo controlled trial of the use of NAC in combination with an antipsychotic agent in the treatment of schizophrenia. A total of 140 individuals were randomised to receive 2 g daily of NAC in two divided doses, or placebo, together with their normal dosage of antipsychotic agent.\nParticipants were assigned randomly and consecutively to treatment with NAC or placebo in a double blind fashion. The randomisation log was generated by an independent individual using the traditional coin tossing method. The investigators and clinicians remained blind until data analysis was completed. The person generating the randomisation schedule was not involved in participant interviews, either for participant eligibility or outcome measurements.\nAll participants remained on their usual antipsychotic medication for the duration of the trial. The dose of the primary therapy was monitored. Participants were recruited through advertisements, referral by case clinicians and through database screening. All participants provided written informed consent as part of complying with the protocol.\nAll randomised participants received two NAC (500 mg) capsules twice daily, to a total dose of 2 g daily, or matching placebo capsules. Human dosing can be up to 5 g/day without adverse effects (Louwerse E. S. et al., 1995). A daily dose that is within the range of efficacy in published clinical trials (Adair J. C. et al., 2001, Van Schooten F. J. et al., 2002, and Behr J, et al., 2002) was selected. Once per day dosing is desirable in the drug treatment of schizophrenia, where medication compliance is known to be a challenge in management. However, steady state plasma levels cannot be achieved with a once daily oral dose of NAC as the plasma half-life is only 2-3 hours (Holdiness M. R., 1991 and Kelly G. S., 1998). While a twice-daily (BID) dosing regimen would also not be expected to achieve steady state plasma levels, dose intervals beyond BID were considered to markedly increase the risk of non-compliance in this population.\nTo be included, the patients were required to meet Diagnostic and Statistical Manual of Mental Disorders, fourth edition (DSM-IV) (Association AP, 1994) criteria for schizophrenia and have a PANSS total score of ≧55, or at least two items in the positive and/or negative items being >3, or have a CGI-S≧3. They needed to have the capacity to consent to the study, and be aged between 18 and 65. Both inpatients and outpatients were eligible. Participants needed to be currently taking an antipsychotic agent and to be utilising effective contraception if female and of childbearing age. Exclusion criteria included patients with abnormal renal, hepatic, thyroid or haematological findings, patients with a systemic medical disorder including asthma, allergies or any history of bronchospasm, respiratory insufficiency and recent gastrointestinal ulcers and females who were positive on pregnancy screening testing at baseline. Participants who were taking a mood stabiliser (e.g. lithium, valproate and carbamazepine) were excluded as were those currently taking drugs that are known to prevent GSH depletion (500+mg of NAC/day, 200+ug of selenium/day or 500+IU of Vitamin E/day).\nWithdrawal from the trial occurred if participants ceased taking their trial medication for seven consecutive days, or ceased effective contraception, or became pregnant. A change in primary antipsychotic from one medication to another required participants to be withdrawn from the study. Similarly, the addition of a mood stabiliser required withdrawal of the participant. Dose changes to existing medications were not an exclusion criterion, and this was monitored. […]"}, "[2]": {"details": "baseline to week 8, LOCF ANCOVA"}, "[3]": {"details": "baseline to week 24, LOCF ANCOVA"}, "[4]": {"details": "baseline to week 24, LOCF ANCOVA with treatment by investigator interaction"}, "[5]": {"details": "score at week 24, end of treatment"}},
  "note": "Marks after values point to notes of the source that are not given here.",
  "data": [
    {"molecule": "CC(=O)N[C@@H](CS)C(=O)O", "note": "[NAC, N-acetyl cysteine]", "values": [
      {"measurement": "Human dosing without adverse effects", "setting": "[1]", "result": "up to 5 g/day"},
      {"measurement": "Number of patients with clinician-observed improvement (CGI-S), NAC group versus placebo group", "setting": "schizophrenia; 16 weeks of treatment", "result": "more than two-fold greater"},
      {"measurement": "Range of CGI-S improvement from baseline in improved subjects", "setting": "schizophrenia; 16 weeks of treatment", "result": "1-3 points"},
      {"measurement": "Effects on safety parameters, including vital signs, weight and clinical biochemistry values", "setting": "schizophrenia; 24 weeks NAC 2 g daily", "result": "no significant effects"},
      {"measurement": "GAF mean overall change from baseline to endpoint, NAC treatment group", "setting": "schizophrenia; ANCOVA, within-group", "result": "+4.5 points"},
      {"measurement": "PANSS scales, NAC versus placebo over all visits", "setting": "schizophrenia; MMRM", "result": "did not detect a significant difference"},
      {"measurement": "PANSS-Negative items 3 and 6 over all visits", "setting": "schizophrenia; MMRM of individual items", "result": "significant (p<0.05) benefit"},
      {"measurement": "Individual PANSS items at specific visits", "setting": "schizophrenia; MMRM of individual items, weeks 2, 4, 8, 16, 20, 24", "result": "significant (p<0.05) improvements on several items"},
      {"measurement": "GAF average improvement over all visits, NAC group", "setting": "schizophrenia; MMRM, within-group", "result": "+3.1 points"},
      {"measurement": "CGI-S: Within NAC Group Week 8 Mean Overall Change (95% CI)", "setting": "schizophrenia; NAC 2 g daily plus usual antipsychotic, baseline to week 8, LOCF ANCOVA", "result": "−0.32 (−0.48, −0.15)**"},
      {"measurement": "Mean gain in weight at week 24", "setting": "schizophrenia; NAC group, n=33", "result": 0.394, "unit": "kg"},
      {"measurement": "Mean weight gain at week 8", "setting": "schizophrenia; NAC group, n=43", "result": 1.372, "unit": "kg"},
      {"measurement": "Functioning as measured by the GAF scale or the SOFAS, between groups", "setting": "schizophrenia; NAC versus placebo", "result": "no between-group differences"},
      {"measurement": "Effect size (Cohen's d statistic) on the BAS", "setting": "schizophrenia; after 24 weeks of NAC treatment", "result": 0.44},
      {"measurement": "BAS: Within NAC Group Week 8 Mean Overall Change (95% CI)", "setting": "schizophrenia; akathisia, baseline to week 8, LOCF ANCOVA", "result": "−0.23 (−0.58, 0.11)"},
      {"measurement": "BAS: Within NAC Group Week 24 Mean Overall Change (95% CI)", "setting": "schizophrenia; akathisia, baseline to week 24, LOCF ANCOVA", "result": "−0.42 (−0.77, −0.06)*"},
      {"measurement": "AIMS: Within NAC Group Week 8 Mean Overall Change (95% CI)", "setting": "schizophrenia; [2]", "result": "0.08 (−0.48, 0.65)"},
      {"measurement": "GAF: Within NAC Group Week 8 Mean Overall Change (95% CI)", "setting": "schizophrenia; [2]", "result": "2.7 (0.22, 5.3)*"},
      {"measurement": "PANSS General: Within NAC Group Week 8 Mean Overall Change (95% CI)", "setting": "schizophrenia; [2]", "result": "−1.7 (−3.2, −0.26)*"},
      {"measurement": "PANSS Negative: Within NAC Group Week 8 Mean Overall Change (95% CI)", "setting": "schizophrenia; [2]", "result": "−0.18 (−1.2, 0.82)"},
      {"measurement": "PANSS Positive: Within NAC Group Week 8 Mean Overall Change (95% CI)", "setting": "schizophrenia; [2]", "result": "−1.6 (−2.6, −0.64)*"},
      {"measurement": "PANSS Total: Within NAC Group Week 8 Mean Overall Change (95% CI)", "setting": "schizophrenia; [2]", "result": "−3.6 (−6.3, −0.90)*"},
      {"measurement": "SAS: Within NAC Group Week 8 Mean Overall Change (95% CI)", "setting": "schizophrenia; [2]", "result": "−0.05 (−0.30, 0.21)"},
      {"measurement": "SOFAS: Within NAC Group Week 8 Mean Overall Change (95% CI)", "setting": "schizophrenia; [2]", "result": "−0.25 (−3.5, 3.0)"},
      {"measurement": "AIMS: Within NAC Group Week 24 Mean Overall Change (95% CI)", "setting": "schizophrenia; [3]", "result": "−0.44 (−1.03, 0.16)"},
      {"measurement": "CGI-S: Within NAC Group Week 24 Mean Overall Change (95% CI)", "setting": "schizophrenia; [3]", "result": "−0.35 (−0.56, −0.14)*"},
      {"measurement": "GAF: Within NAC Group Week 24 Mean Overall Change (95% CI)", "setting": "schizophrenia; [3]", "result": "4.5 (1.5, 7.5)*"},
      {"measurement": "PANSS Positive: Within NAC Group Week 24 Mean Overall Change (95% CI)", "setting": "schizophrenia; [3]", "result": "−2.3 (−3.49, −1.09)**"},
      {"measurement": "SAS: Within NAC Group Week 24 Mean Overall Change (95% CI)", "setting": "schizophrenia; [3]", "result": "−0.17 (−0.46, 0.13)"},
      {"measurement": "SOFAS: Within NAC Group Week 24 Mean Overall Change (95% CI)", "setting": "schizophrenia; [3]", "result": "−0.69 (−4.99, 3.6)"},
      {"measurement": "PANSS General: Within NAC Group Week 24 Mean Overall Change (95% CI)", "setting": "schizophrenia; [4]", "result": "−4.4 (−6.39, −2.48)^d**"},
      {"measurement": "PANSS Negative: Within NAC Group Week 24 Mean Overall Change (95% CI)", "setting": "schizophrenia; [4]", "result": "−1.6 (−2.71, −0.46)^d"},
      {"measurement": "PANSS Total: Within NAC Group Week 24 Mean Overall Change (95% CI)", "setting": "schizophrenia; [4]", "result": "−8.8 (−12.2, −5.5)^d**"},
      {"measurement": "Adverse events, NAC group compared to placebo group", "setting": "schizophrenia; checklist of 44 somatic items", "result": "No reported event was significantly more common"},
      {"measurement": "Eye irritation, NAC treatment group compared to placebo", "setting": "schizophrenia; checklist of 44 somatic items", "result": "significantly less"},
      {"measurement": "SAS or AIMS scores, placebo versus NAC over all visits", "setting": "schizophrenia; over all visits", "result": "no significant differences"},
      {"measurement": "CGI-I: Within NAC Group Week 8 Mean (95% CI)", "setting": "schizophrenia; score at that time point (no baseline score), week 8, NAC 2 g daily plus antipsychotic", "result": "3.1 (2.9, 3.4)"},
      {"measurement": "CGI-I: Within NAC Group Week 24 Mean (95% CI)", "setting": "schizophrenia; score at that time point (no baseline score), week 24", "result": "2.9 (2.6, 3.1)"},
      {"measurement": "CGI-I: NAC Mean (95% CI) at post-treatment discontinuation", "setting": "schizophrenia; score at that time point, washout, week 28", "result": "2.9 (2.5, 3.4)"},
      {"measurement": "AIMS: NAC Mean Week 24 (SD)", "setting": "schizophrenia; [5]", "result": "2.2 (3.5)"},
      {"measurement": "BAS: NAC Mean Week 24 (SD)", "setting": "schizophrenia; [5]", "result": "0.42 (0.93)"},
      {"measurement": "CGI-I: NAC Mean Week 24 (SD)", "setting": "schizophrenia; [5]", "result": "2.9 (0.93)"},
      {"measurement": "CGI-S: NAC Mean Week 24 (SD)", "setting": "schizophrenia; [5]", "result": "3.5 (1.0)"},
      {"measurement": "GAF: NAC Mean Week 24 (SD)", "setting": "schizophrenia; [5]", "result": "54.4 (15.4)"}
    ]}
  ]
}
